Data published in patent publication US20250129135A1, “Multi-Agonist and Use Thereof” (priority 2021, published 2025).
Starred links: 1 amine or outer side, 2 acyl side, 3 side chain; linkers in the order of their positions; H or OH if unused. Non-standard residues stand in square brackets, D forms with d. Residues, ends and D or L forms follow the SMILES beside them. Groups on a side chain read outwards from the residue. *: point of attachment. C20 diacid = O=C(O)CCCCCCCCCCCCCCCCCCC(=O)*; γGlu = O=C(O)[C@H](CCC(=O)[*:2])N[*:1]; αMeF = C[C@](N)(Cc1ccccc1)C(=O)O; αMeL = CC(C)C[C@](C)(N)C(=O)O; AEEA = NCCOCCOCC(=O)O; Ac3c = NC1(C(=O)O)CC1; Aib = CC(C)(N)C(=O)O

Experiments:
RIN-m5F cells = type: cell-based, rat; conditions: for Rel. A (Relative Activity) on RIN-m5F: relative to GLP-1(7-37)
How it was run: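 cAMP production measured in RIN-m5F cells resuspended in HBSS; compounds incubated 60 min at room temperature, then detection reagent added for a further 60 min before read-out.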

Human GCG R = target: T1, Human GCG R (Homo sapiens, UniProt P47871); assay: cAMP (HTRF) activity in HEK-293 cells stably overexpressing human GCG receptor; type: cell-based; conditions: EC50 of human GCG / EC50 of compound
T1 construct: expressed in transfected cells; host or cells: HEK-293
How it was run: (§1)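 Cells resuspended in HBSS are incubated with compound for 60 min at room temperature, then with HTRF cAMP detection reagent for a further 60 min. Concentration-response fits give agonist EC50 values in nM.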

3T3-L1 adipocytes = conditions: for Rel. A (Relative Activity) on 3T3-L1 adipocyte: relative to GIP
How it was run: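 Mouse 3T3-L1 preadipocytes were differentiated with IBMX, dexamethasone and insulin for 5 days, then insulin plus 10 uM rosiglitazone for 3 days, then 10% FBS medium for 2–3 days. Mature adipocytes received 10-point, 3-fold compound dilutions for 60 min at room temperature. cAMP was read by kit detection reagent after a further 60 min, with concentration-effect curves fitted.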

[1] = tested on: human primary liver cells; type: cell-based; conditions: for Rel. A (Relative Activity) on human primary liver cells: relative to GCG
How it was run: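 Human primary hepatocytes, thawed at 37° C and resuspended in HBSS, exposed to compound for 60 min at room temperature. Detection reagent then added for 60 min before cAMP readout.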

Human GIP R = target: T2, Human GIP R (Homo sapiens, UniProt P48546); assay: cAMP (HTRF) activity in CHO cells stably overexpressing GIP receptor; type: cell-based; conditions: for Human GIP R Rel. A (Relative Activity): EC50 of human GIP / EC50 of compound; for EC50: stable transfected cell cAMP activity, at least 3 independent tests
T2 construct: expressed in transfected cells; host or cells: CHO
T2 sequence (P48546 22-466): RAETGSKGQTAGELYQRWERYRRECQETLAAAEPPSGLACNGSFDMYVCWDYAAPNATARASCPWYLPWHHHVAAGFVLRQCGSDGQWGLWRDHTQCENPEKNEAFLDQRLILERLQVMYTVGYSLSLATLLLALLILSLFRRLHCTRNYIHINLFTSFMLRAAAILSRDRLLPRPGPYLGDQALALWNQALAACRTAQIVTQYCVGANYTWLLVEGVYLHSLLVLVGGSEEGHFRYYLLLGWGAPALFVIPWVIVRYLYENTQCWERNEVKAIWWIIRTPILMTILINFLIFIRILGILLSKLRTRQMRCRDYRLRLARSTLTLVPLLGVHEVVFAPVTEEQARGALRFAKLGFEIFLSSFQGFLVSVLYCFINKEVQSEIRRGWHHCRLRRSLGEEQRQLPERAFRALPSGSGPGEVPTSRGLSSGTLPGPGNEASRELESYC
How it was run: as §1

Human GLP-1R = Human GLP-1R (Homo sapiens, UniProt P43220); assay: cAMP (HTRF) activity in HEK-293 cells stably overexpressing human GLP-1 receptor; type: cell-based; design: expressed in transfected cells; host or cells: HEK-293; conditions: for Human GLP-1R Rel. A (Relative Activity): EC50 of human GLP-1 (7-37) / EC50 of compound
How it was run: as §1

Sequence of Human GLP-1R (P43220 24-463): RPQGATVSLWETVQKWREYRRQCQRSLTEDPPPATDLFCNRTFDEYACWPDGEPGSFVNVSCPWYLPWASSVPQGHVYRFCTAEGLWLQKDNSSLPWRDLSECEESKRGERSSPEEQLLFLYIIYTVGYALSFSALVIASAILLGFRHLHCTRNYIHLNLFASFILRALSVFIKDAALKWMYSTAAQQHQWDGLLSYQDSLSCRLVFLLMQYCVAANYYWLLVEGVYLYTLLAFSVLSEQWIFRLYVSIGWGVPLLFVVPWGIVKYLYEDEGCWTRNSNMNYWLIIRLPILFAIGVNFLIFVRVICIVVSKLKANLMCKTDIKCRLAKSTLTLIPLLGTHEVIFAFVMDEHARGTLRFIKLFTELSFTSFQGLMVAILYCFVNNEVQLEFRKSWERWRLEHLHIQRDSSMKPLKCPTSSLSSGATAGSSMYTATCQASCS
T1 sequence (P47871 26-477): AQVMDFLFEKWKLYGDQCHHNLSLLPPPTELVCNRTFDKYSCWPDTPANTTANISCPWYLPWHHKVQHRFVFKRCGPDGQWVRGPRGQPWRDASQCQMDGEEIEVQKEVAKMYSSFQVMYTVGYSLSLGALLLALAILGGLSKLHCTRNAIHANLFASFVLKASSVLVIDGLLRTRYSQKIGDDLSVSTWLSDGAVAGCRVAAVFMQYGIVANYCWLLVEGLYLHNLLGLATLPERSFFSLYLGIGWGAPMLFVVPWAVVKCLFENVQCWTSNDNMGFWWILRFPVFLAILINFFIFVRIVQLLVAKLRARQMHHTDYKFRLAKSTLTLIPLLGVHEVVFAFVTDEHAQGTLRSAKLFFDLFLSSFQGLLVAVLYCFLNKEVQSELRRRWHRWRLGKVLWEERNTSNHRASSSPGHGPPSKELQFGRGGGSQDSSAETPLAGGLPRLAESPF

SMILES	EC50 (RIN-m5F cells)	Rel. A (Relative Activity) on RIN-m5F (RIN-m5F cells)	Human GCG R Rel. A (Relative Activity) (Human GCG R)	EC50 (3T3-L1 adipocytes)	Rel. A (Relative Activity) on 3T3-L1 adipocyte (3T3-L1 adipocytes)	EC50 [1]	Rel. A (Relative Activity) on human primary liver cells [1]	Human GIP R Rel. A (Relative Activity) (Human GIP R)	EC50 (Human GIP R)	Human GLP-1R Rel. A (Relative Activity) (Human GLP-1R)	EC50 (Human GLP-1R; stable transfected cell cAMP activity, at least 3 independent tests)
CC[C@H](C)[C@H](NC(=O)[C@H](Cc1ccccc1)NC(=O)[C@H](C)NC(=O)C(C)(C)NC(=O)[C@H](CCC(N)=O)NC(=O)[C@H](C)NC(=O)[C@H](CCCCNC(=O)COCCOCCNC(=O)COCCOCCNC(=O)CC[C@H](NC(=O)CCCCCCCCCCCCCCCCCCC(=O)O)C(=O)O)NC(=O)[C@H](CCCCN)NC(=O)[C@H](CC(=O)O)NC(=O)[C@H](CC(C)C)NC(=O)[C@](C)(CC(C)C)NC(=O)[C@@H](NC(=O)[C@H](CO)NC(=O)[C@H](Cc1ccc(O)cc1)NC(=O)[C@H](CC(=O)O)NC(=O)[C@H](CO)NC(=O)[C@@H](NC(=O)[C@](C)(Cc1ccccc1)NC(=O)[C@@H](NC(=O)CNC(=O)[C@H](CCC(N)=O)NC(=O)C(C)(C)NC(=O)[C@@H](N)Cc1ccc(O)cc1)[C@@H](C)O)[C@@H](C)O)[C@@H](C)CC)C(=O)N[C@@H](CCC(=O)O)C(=O)N[C@@H](Cc1ccc(O)cc1)C(=O)N[C@@H](CC(C)C)C(=O)N[C@@H](CC(C)C)C(=O)N[C@@H](CCC(=O)O)C(=O)N[C@H](C(=O)NCC(=O)N1CCC[C@H]1C(=O)N[C@@H](CO)C(=O)N[C@@H](CO)C(=O)NCC(=O)N[C@@H](CCC(N)=O)C(=O)N1CCC[C@H]1C(=O)N1CCC[C@H]1C(=O)NC1(C(=O)N[C@@H](CO)C(N)=O)CC1)[C@@H](C)O [Compound 35] (H-Y[Aib]QGT[αMeF]TSDYSI[αMeL]LDKK([AEEA-AEEA-γGlu-C20 diacid])AQ[Aib]AFIEYLLETGPSSGQPP[Ac3c]S-NH2; N-terminus assumed)	0.346 nM	298.27%	65.52%	6.01 nM	63.28%	1.96 nM	198.52%	2262.50%	0.008 nM	200.00%	0.022 nM
CC[C@H](C)[C@H](NC(=O)[C@H](Cc1ccccc1)NC(=O)[C@H](C)NC(=O)C(C)(C)NC(=O)[C@H](CCC(N)=O)NC(=O)[C@H](C)NC(=O)[C@H](CCCCNC(=O)COCCOCCNC(=O)COCCOCCNC(=O)CC[C@H](NC(=O)CCCCCCCCCCCCCCCCCCC(=O)O)C(=O)O)NC(=O)[C@H](CCCCN)NC(=O)[C@H](CC(=O)O)NC(=O)[C@H](CC(C)C)NC(=O)[C@](C)(CC(C)C)NC(=O)[C@@H](NC(=O)[C@H](CO)NC(=O)[C@H](Cc1ccc(O)cc1)NC(=O)[C@H](CC(=O)O)NC(=O)[C@H](CO)NC(=O)[C@@H](NC(=O)[C@](C)(Cc1ccccc1)NC(=O)[C@@H](NC(=O)CNC(=O)[C@H](CCC(N)=O)NC(=O)C(C)(C)NC(=O)[C@@H](N)Cc1ccc(O)cc1)[C@@H](C)O)[C@@H](C)O)[C@@H](C)CC)C(=O)N[C@@H](CCC(=O)O)C(=O)N[C@@H](Cc1ccccc1)C(=O)N[C@@H](CC(C)C)C(=O)N[C@@H](CC(C)C)C(=O)N[C@@H](CCC(=O)O)C(=O)NCC(=O)N[C@@H](CCCNC(=N)N)C(=O)N1CCC[C@H]1C(=O)N[C@@H](CO)C(=O)N[C@@H](CO)C(=O)NC(C)(C)C(=O)N[C@@H](Cc1c[nH]cn1)C(=O)N1CCC[C@H]1C(=O)N1CCC[C@H]1C(=O)N1CCC[C@H]1C(=O)N[C@@H](CO)C(N)=O [Compound 37] (H-Y[Aib]QGT[αMeF]TSDYSI[αMeL]LDKK([AEEA-AEEA-γGlu-C20 diacid])AQ[Aib]AFIEFLLEGRPSS[Aib]HPPPS-NH2; N-terminus assumed)	0.176 nM	586.36%	69.51%	2.49 nM	152.87%	1.04 nM	373.06%	1206.67%	0.015 nM	157.14%	
